{"source": "patent US10624893B2", "about": "(priority 2016, dated 2020)", "test_system": "M. tuberculosis drug resistant strains", "assay": "microbe, parasite or virus in culture", "format": "cell-based", "settings": "Mycobacterium tuberculosis, cholesterol medium", "note": "Read-outs that look alike come from different tables or passages of the source.", "data": [{"smiles": "Cc1cccc(OC2CCN(Cc3cc(=O)[nH]c(=O)[nH]3)CC2)c1C", "note": "[Test Compound, 6-((4-(2,3-dimethylphenoxy)piperidin-1-yl)methyl)pyrimidine-2,4(1H,3H)-dione]", "values": [{"measurement": "MIC", "setting": "ERDMAN, strain Erdman, DS, read-out: MIC 1", "result": 0.78, "unit": "µM"}, {"measurement": "MIC", "setting": "ERDMAN, strain Erdman, DS, read-out: MIC 2", "result": 0.6, "unit": "µM"}, {"measurement": "MIC", "setting": "H37RV, strain H37Rv, DS, read-out: MIC 2", "result": 0.39, "unit": "µM"}, {"measurement": "MIC", "setting": "[…], read-out: MIC 2", "result": 0.6, "unit": "µM"}, {"measurement": "MIC", "setting": "strain CDC1551, DS, read-out: MIC 1", "result": 0.78, "unit": "µM"}, {"measurement": "MIC", "setting": "strain CDC1551, DS, read-out: MIC 2", "result": 0.39, "unit": "µM"}, {"measurement": "MIC", "setting": "strain HN878, DS, read-out: MIC 1", "result": 0.78, "unit": "µM"}, {"measurement": "MIC", "setting": "strain HN878, DS, read-out: MIC 2", "result": 0.6, "unit": "µM"}, {"measurement": "MIC", "setting": "strain K03b00DS, DS, read-out: MIC 1", "result": 0.3, "unit": "µM"}, {"measurement": "MIC", "setting": "strain K03b00DS, DS, read-out: MIC 2", "result": 0.2, "unit": "µM"}, {"measurement": "MIC", "setting": "strain K04b00DS, DS, read-out: MIC 1", "result": 0.39, "unit": "µM"}, {"measurement": "MIC", "setting": "strain K07b00DS, DS, read-out: MIC 1", "result": 0.6, "unit": "µM"}, {"measurement": "MIC", "setting": "strain K07b00DS, DS, read-out: MIC 2", "result": 0.39, "unit": "µM"}, {"measurement": "MIC", "setting": "strain K08b00DS, DS, read-out: MIC 1", "result": 0.6, "unit": "µM"}, {"measurement": "MIC", "setting": "strain K08b00DS, DS, read-out: MIC 2", "result": 0.39, "unit": "µM"}, {"measurement": "MIC", "setting": "strain K11b00DS, DS, read-out: MIC 2", "result": 0.78, "unit": "µM"}, {"measurement": "MIC", "setting": "strain K12b00DS, DS, read-out: MIC 1", "result": 0.2, "unit": "µM"}, {"measurement": "MIC", "setting": "strain K12b00DS, DS, read-out: MIC 2", "result": 0.6, "unit": "µM"}, {"measurement": "MIC", "setting": "strain K13b00DS, DS, read-out: MIC 1", "result": 0.78, "unit": "µM"}, {"measurement": "MIC", "setting": "strain K13b00DS, DS, read-out: MIC 2", "result": 0.6, "unit": "µM"}, {"measurement": "MIC", "setting": "strain K14b00DS, DS, read-out: MIC 2", "result": 0.6, "unit": "µM"}, {"measurement": "MIC", "setting": "strain K16b00DS, DS, read-out: MIC 1", "result": 0.39, "unit": "µM"}, {"measurement": "MIC", "setting": "strain K16b00DS, DS, read-out: MIC 2", "result": 0.2, "unit": "µM"}, {"measurement": "MIC", "setting": "strain K35b00DS, DS, read-out: MIC 1", "result": 0.6, "unit": "µM"}, {"measurement": "MIC", "setting": "strain K35b00DS, DS, read-out: MIC 2", "result": 0.39, "unit": "µM"}, {"measurement": "MIC", "setting": "strain NIH_G1DS, DS, read-out: MIC 1", "result": 0.78, "unit": "µM"}, {"measurement": "MIC", "setting": "strain NIH_G1DS, DS, read-out: MIC 2", "result": 0.39, "unit": "µM"}, {"measurement": "MIC", "setting": "strain NIH_G12, read-out: MIC 1", "result": 0.78, "unit": "µM"}, {"measurement": "MIC", "setting": "strain NIH_G13, read-out: MIC 1", "result": 0.6, "unit": "µM"}]}]}
